# Experimental data reported in ChEMBL document CHEMBL5150003, “Why All the Fury over Furin?” (J Med Chem, 2022).
# Peptide text beside a SMILES is read from it.
# Experiments:
# [1] = Inhibition of porcine trypsin using Mes-DArg-Gly-Arg-AMC as substrate and measured by fluorescence assay; parameters: species or system Sus scrofa
# Furin [2] = molecular target: T1, Furin (Homo sapiens, UniProt P09958); assay: Inhibition of furin (unknown origin)
# [3] = Dissociation constant, pKa of the compound; format: physicochemical
# Mus musculus [4] = assay: Antifibrotic activity against bleomycin-induced mouse lung fibrosis model assessed as inhibition of hydroxyproline content in lung at 10 mg/kg, ip administered once daily; format: functional
# Furin [5] = molecular target: T1, Furin; assay: Inhibition of furin in human U2OS cells measured after 24 hrs by fluorescence assay; format: cell-based
# Mus musculus [6] = assay: Antifibrotic activity against bleomycin-induced mouse lung fibrosis model assessed as inhibition of TGF-beta secretion in lung at 10 mg/kg, ip administered once daily; format: functional
# Furin [7] = molecular target: T1, Furin; assay: Inhibition of human furin using Pyr-RTKR-AMC as substrate preincubated for 30 mins followed by substrate addition and measured by fluorescence based assay
# [8] = Inhibition of human papilloma virus-11 replication in HEK293 cells measured by transient DNA replication assay; format: functional, cell-based; conditions: human papillomavirus 11, HEK293
# Mus musculus [9] = assay: Antifibrotic activity against bleomycin-induced mouse lung fibrosis model assessed as inhibition of TGF-beta secretion in lung at 10 mg/kg, po administered once daily; format: functional
# Mus musculus [10] = assay: Antifibrotic activity against bleomycin-induced mouse lung fibrosis model assessed as inhibition of hydroxyproline content in lung at 10 mg/kg, po administered once daily; format: functional
# Furin [11] = molecular target: T1, Furin; assay: Inhibition of Tev-FLAG-His-tagged furin (108 to 574 residues) (unknown origin) using FAM-QRVRRAVGIDK-TAMRA as substrate and measured after 2 hrs
# Furin [12] = molecular target: T1, Furin; assay: Inhibition of soluble human furin using boc-RVRR-MCA as substrate incubated for 45 mins and measured by fluorescence assay
# Furin [13] = molecular target: T1, Furin; assay: Inhibition of human furin expressed in HEK293 cells using pGlu-Arg-Thr-LysArg-AMC as substrate and measured by fluorescence based assay
# [14] = Stability in mouse plasma assessed as half-life; format: ADME, cell-free
# Vero = assay: Protective activity against Escherichia coli O157:H7 Shiga toxin-induced cytotoxicity in monkey Vero cells measured by LDH assay; format: functional, cell-based; conditions: Chlorocebus sabaeus
# [15] = Stability in mouse plasma assessed as compound remaining measured after 24 hrs; format: ADME, cell-free; conditions: read-out: Stability
# Furin [16] = molecular target: T1, Furin; assay: Inhibition of recombinant human furin protease
# Mus musculus [17] = assay: Antifibrotic activity against bleomycin-induced mouse lung fibrosis model assessed as inhibition of hydroxyproline content in lung at 10 mg/kg, ip administered twice daily; format: functional
# Mus musculus [18] = assay: Antifibrotic activity against bleomycin-induced mouse lung fibrosis model assessed as inhibition of TGF-beta secretion in lung at 10 mg/kg, ip administered twice daily; format: functional
# [19] = molecular target: T2, Proprotein convertase subtilisin/kexin type 6 (Homo sapiens, UniProt P29122); assay: Inhibition of PACE4 (unknown origin)
# T2 sequence (P29122 whole entry): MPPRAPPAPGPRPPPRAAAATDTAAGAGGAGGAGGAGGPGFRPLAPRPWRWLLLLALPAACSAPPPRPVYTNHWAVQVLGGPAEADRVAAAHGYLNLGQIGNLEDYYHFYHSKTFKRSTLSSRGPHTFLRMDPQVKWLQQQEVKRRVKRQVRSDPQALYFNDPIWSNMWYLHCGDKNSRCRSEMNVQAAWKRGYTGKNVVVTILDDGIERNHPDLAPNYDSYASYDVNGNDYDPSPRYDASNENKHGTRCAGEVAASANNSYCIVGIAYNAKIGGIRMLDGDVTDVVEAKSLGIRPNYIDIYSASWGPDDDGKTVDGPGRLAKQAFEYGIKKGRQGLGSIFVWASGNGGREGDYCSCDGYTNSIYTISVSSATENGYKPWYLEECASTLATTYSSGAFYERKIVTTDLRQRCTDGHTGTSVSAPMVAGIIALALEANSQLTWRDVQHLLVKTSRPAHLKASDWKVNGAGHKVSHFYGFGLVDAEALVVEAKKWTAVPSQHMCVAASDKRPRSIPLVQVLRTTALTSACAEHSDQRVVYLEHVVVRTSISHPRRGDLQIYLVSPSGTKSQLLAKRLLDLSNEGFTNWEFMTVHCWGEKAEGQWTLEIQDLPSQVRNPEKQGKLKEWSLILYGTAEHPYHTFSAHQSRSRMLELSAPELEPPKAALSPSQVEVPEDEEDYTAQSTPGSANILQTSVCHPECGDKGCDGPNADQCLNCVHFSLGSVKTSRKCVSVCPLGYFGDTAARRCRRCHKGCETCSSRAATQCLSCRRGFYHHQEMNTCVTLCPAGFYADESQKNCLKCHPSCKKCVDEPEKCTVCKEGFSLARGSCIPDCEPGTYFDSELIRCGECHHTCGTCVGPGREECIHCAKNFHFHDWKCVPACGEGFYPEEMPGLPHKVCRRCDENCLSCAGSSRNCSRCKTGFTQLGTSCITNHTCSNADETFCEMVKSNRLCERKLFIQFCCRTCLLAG
# Plasminogen = Plasminogen (Homo sapiens, UniProt P00747); assay: Inhibition of human plasmin using Mes-DArg-Phe-Arg-AMC as substrate and measured by fluorescence assay
# Plasminogen, sequence (P00747 97-580 limits assumed): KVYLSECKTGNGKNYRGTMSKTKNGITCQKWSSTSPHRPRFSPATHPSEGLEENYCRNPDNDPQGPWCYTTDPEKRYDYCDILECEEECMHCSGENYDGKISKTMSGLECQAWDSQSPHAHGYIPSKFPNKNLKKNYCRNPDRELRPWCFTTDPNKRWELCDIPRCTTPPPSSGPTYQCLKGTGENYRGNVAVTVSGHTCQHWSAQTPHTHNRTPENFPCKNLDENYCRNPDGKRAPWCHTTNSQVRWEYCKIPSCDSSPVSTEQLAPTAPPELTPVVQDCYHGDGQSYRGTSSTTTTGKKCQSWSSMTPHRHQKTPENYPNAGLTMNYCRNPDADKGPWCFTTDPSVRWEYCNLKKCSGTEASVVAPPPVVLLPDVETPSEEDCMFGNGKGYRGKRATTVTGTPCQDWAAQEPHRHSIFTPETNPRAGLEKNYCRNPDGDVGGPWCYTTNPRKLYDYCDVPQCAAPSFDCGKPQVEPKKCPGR
# Plasminogen, sequence (P00747 581-810 limits assumed): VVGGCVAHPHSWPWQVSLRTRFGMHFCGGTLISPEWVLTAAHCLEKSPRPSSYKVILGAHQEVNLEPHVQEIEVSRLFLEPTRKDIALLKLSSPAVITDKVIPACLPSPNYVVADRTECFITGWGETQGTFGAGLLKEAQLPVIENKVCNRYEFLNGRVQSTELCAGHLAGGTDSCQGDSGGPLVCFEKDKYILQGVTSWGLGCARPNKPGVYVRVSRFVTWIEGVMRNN
# Coagulation factor X = Coagulation factor X (Homo sapiens, UniProt P00742); assay: Inhibition of human fXa using Mes-DArg-Pro-Arg-AMC as substrate and measured by fluorescence assay
# Coagulation factor X, sequence (P00742 41-179 limits assumed): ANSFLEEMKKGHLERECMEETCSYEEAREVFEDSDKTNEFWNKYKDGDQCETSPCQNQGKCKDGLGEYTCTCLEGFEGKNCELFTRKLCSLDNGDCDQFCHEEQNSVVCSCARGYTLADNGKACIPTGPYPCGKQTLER
# Coagulation factor X, sequence (P00742 235-488 limits assumed): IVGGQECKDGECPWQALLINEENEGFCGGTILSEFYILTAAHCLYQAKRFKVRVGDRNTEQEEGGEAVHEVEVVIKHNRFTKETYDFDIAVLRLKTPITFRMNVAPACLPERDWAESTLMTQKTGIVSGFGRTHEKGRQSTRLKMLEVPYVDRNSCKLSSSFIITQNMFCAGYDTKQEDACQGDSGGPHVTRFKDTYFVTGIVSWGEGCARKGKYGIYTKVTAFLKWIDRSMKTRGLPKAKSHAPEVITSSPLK
# Furin [20] = molecular target: T1, Furin; assay: Inhibition of recombinant human furin using Phac-Arg-Val-Arg-Arg-AMC as substrate incubated for 30 mins and measured by microplate reader method
# Prothrombin = Prothrombin (Bos taurus, UniProt P00735); assay: Inhibition of bovine thrombin using Tos-Gly-Pro-Arg-AMC as substrate and measured by fluorescence assay
# T1 sequence (P09958 whole entry): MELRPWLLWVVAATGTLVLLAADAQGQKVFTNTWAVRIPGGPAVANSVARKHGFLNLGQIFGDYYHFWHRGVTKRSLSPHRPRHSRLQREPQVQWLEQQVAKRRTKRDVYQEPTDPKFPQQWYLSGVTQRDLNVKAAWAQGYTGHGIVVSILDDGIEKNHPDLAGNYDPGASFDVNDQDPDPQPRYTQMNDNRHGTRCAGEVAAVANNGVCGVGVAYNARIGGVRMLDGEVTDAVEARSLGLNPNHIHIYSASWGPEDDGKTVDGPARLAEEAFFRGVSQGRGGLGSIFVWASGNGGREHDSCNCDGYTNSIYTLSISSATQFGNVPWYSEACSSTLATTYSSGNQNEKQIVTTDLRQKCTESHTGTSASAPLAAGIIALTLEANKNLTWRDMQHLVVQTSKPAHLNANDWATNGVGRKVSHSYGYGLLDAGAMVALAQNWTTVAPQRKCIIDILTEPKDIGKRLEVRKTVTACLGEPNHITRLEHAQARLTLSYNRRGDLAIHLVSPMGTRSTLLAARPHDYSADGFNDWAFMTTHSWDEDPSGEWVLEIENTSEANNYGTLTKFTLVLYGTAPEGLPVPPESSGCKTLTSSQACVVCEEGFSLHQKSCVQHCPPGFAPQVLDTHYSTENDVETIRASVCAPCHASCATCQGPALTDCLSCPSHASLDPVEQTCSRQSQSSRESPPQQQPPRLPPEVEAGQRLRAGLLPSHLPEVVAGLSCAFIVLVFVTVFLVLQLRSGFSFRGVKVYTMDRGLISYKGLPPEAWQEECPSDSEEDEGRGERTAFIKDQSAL
structure (smiles),measurement,setting,value
CC(C)(C)[C@H](NC(=O)[C@H](CCCNC(=N)N)NC(=O)Cc1ccc(CNC(=N)N)cc1)C(=O)N[C@@H](CCCNC(=N)N)C(=O)NCc1ccc(C(=N)N)cc1,Ki,[1],0.052 µM
CC(C)(C)[C@H](NC(=O)[C@H](CCCNC(=N)N)NC(=O)Cc1ccc(CNC(=N)N)cc1)C(=O)N[C@@H](CCCNC(=N)N)C(=O)NCc1ccc(N)nc1,IC50,Furin [2],0.00298 µM
same,Ki,Furin [2],0.8 nM
same,pKa,[3],6.5
CC(=O)NCC1CCN(Cc2cc(Oc3ccc(N4CCN(CCO)CC4)nc3)nc(-c3cc(Cl)cc(Cl)c3)c2)CC1,inhibition in vivo at 10 mg/kg,Mus musculus [4],56%
same,pXC50,Furin [5],8.5
same,inhibition in vivo at 10 mg/kg,Mus musculus [6],60%
CC(=O)N[C@@H](CCCNC(=N)N)C(=O)N[C@H](C(=O)N[C@@H](Cc1ccc(N=C(N)N)cc1)C(=O)NCc1ccc(/C(N)=N/O)cc1)C(C)C,Ki,Furin [7],1.2 µM
CSc1oc(-c2ccc(Cl)cc2Cl)nc1[P+](c1ccccc1)(c1ccccc1)c1ccccc1,Ki,Furin [2],1570 nM
same,IC50,[8],1.7 µM
CC(=O)N[C@@H](CCCNC(=N)N)C(=O)N[C@H](C(=O)N[C@@H](Cc1ccc(N=C(N)N)cc1)C(=O)NCc1ccc(C(=N)N)cc1)C(C)C,Ki,Furin [7],0.007 µM
CC(CC1CCN(Cc2cc(Oc3cnc(N4CCN(C)CC4)nc3)nc(-c3cc(Cl)cc(Cl)c3)c2)CC1)C(=O)O (configuration not stated),inhibition in vivo at 10 mg/kg,Mus musculus [9],81%
same,inhibition in vivo at 10 mg/kg,Mus musculus [10],54%
same,pXC50,Furin [5],8
same,IC50,Furin [11],0.000794 µM
N=C(N)N/N=C/c1ccccc1OCc1ccc(Cl)cc1,Ki,Furin [12],25.3 µM
CC(C)[C@H](NC(=O)[C@H](CCCNC(=N)N)NC(=O)Cc1cccc(CNC(=N)N)c1)C(=O)N[C@@H](CCCNC(=N)N)C(=O)NCc1ccc(C(=N)N)cc1,Ki,Furin [13],0.016 nM
CC(C)(C)[C@H](NC(=O)[C@H](CCCNC(=N)N)NC(=O)Cc1ccccc1)C(=O)N[C@@H](CCCNC(=N)N)C(=O)NCc1ccc(C(=N)N)cc1,Ki,Furin [13],0.17 nM
CC(=O)N[C@@H](CCCNC(=N)N)C(=O)N[C@@H](C)C(=O)N[C@@H](CCCNC(=N)N)C(=O)N[C@@H](CCCNC(=N)N)C(=O)N[C@@H](CCCNC(=N)N)C(=O)N[C@@H](CCCCN)C(=O)N[C@@H](CCCCN)C(=O)N[C@@H](CCCNC(=N)N)C(=O)N[C@H](C(N)=O)[C@@H](C)O,half-life,[14],1.7 h
same,Ki,Furin [2],19 nM
same,IC50,Vero,> 1000 µM
same,remaining at 24 h,[15],5%
same,Ki,Furin [16],0.019 µM
CC(C)[C@H](NC(=O)[C@H](CCCNC(=N)N)NC(=O)Cc1ccc(CNC(=N)N)cc1)C(=O)N[C@@H](CCCNC(=N)N)C(=O)NCc1ccc(C(=N)N)cc1,Ki,Furin [13],0.0076 nM
CC(C)[C@H](NS(=O)(=O)Cc1ccc(C(=N)N)cc1)C(=O)N[C@@H](CCCNC(=N)N)C(=O)NCc1ccc(C(=N)N)cc1,Ki,Furin [7],0.3 µM
CC(=O)NCC1CCN(Cc2cc(Oc3ccc(N4CCN(CCC(=O)O)CC4)nc3)nc(-c3cc(Cl)cc(Cl)c3)c2)CC1,inhibition in vivo at 10 mg/kg,Mus musculus [17],67%
same,inhibition in vivo at 10 mg/kg,Mus musculus [18],69%
same,pXC50,Furin [5],7.6
CNC(=O)NCC1CCN(Cc2cc(Oc3ccc(N4CCN(CCC(=O)O)CC4)nc3)nc(-c3cc(Cl)cc(Cl)c3)c2)CC1,inhibition in vivo at 10 mg/kg,Mus musculus [4],39%
same,pXC50,Furin [5],7.6
same,inhibition in vivo at 10 mg/kg,Mus musculus [6],67%
CC(=O)N[C@@H](CC(C)C)C(=O)N[C@@H](CC(C)C)C(=O)N[C@@H](CC(C)C)C(=O)N[C@@H](CC(C)C)C(=O)N[C@@H](CCCNC(=N)N)C(=O)N[C@H](C(=O)N[C@@H](CCCCN)C(=O)N[C@@H](CCCNC(=N)N)C(N)=O)C(C)C (Ac-LLLLRVKR-NH2),IC50,Furin [2],0.02 µM
same,IC50,[19],0.03 µM
CC(C)(C)[C@H](NC(=O)[C@H](CCCNC(=N)N)NC(=O)Cc1ccc(CNC(=N)N)cc1)C(=O)N[C@@H](CCCNC(=N)N)C(=O)NCc1ccc(CN)cc1,IC50,Furin [2],0.00953 µM
same,Ki,Furin [2],2.52 nM
same,pKa,[3],9.28
CC(C)(C)[C@H](NC(=O)[C@H](CCCONC(=N)N)NC(=O)Cc1ccc(CNC(=N)N)cc1)C(=O)N[C@@H](CCCONC(=N)N)C(=O)NCc1ccc(C(=N)N)cc1,Ki,Plasminogen,> 3 µM
same,Ki,Coagulation factor X,> 3 µM
same,Ki,Furin [20],0.0101 nM
same,Ki,[1],0.69 µM
same,Ki,Prothrombin,> 3 µM
CC(=O)N[C@@H](CCCNC(=N)N)C(=O)N[C@H](C(=O)N[C@@H](Cc1ccc(N=C(N)N)cc1)C(=O)NCc1ccc(C(=N)N)cc1F)C(C)C,Ki,Furin [7],0.009 µM
CC(=O)NCC1CCN(Cc2cc(Oc3cnc(N4CCN(CCC(=O)O)CC4)nc3)nc(-c3cc(Cl)cc(Cl)c3)c2)CC1,inhibition in vivo at 10 mg/kg,Mus musculus [17],60%
same,inhibition in vivo at 10 mg/kg,Mus musculus [18],86%
same,pXC50,Furin [5],8
CC(=O)NCC1CCN(Cc2cc(Oc3ccc(N4CCN(CC(=O)O)CC4)nc3)nc(-c3cc(Cl)cc(Cl)c3)c2)CC1,inhibition in vivo at 10 mg/kg,Mus musculus [17],16%
same,inhibition in vivo at 10 mg/kg,Mus musculus [18],43%
same,pXC50,Furin [5],6.9
CC(C)(C)[C@H](NC(=O)[C@H](CCCNC(=N)N)NC(=O)Cc1ccc(CNC(=N)N)cc1)C(=O)N[C@@H](CCCNC(=N)N)C(=O)NCc1ccc(C(=N)N)c(F)c1,IC50,Furin [2],0.00056 µM
same,Ki,Furin [2],0.0223 nM
same,pKa,[3],9.46
CC(=O)N[C@@H](CCCNC(=N)N)C(=O)N[C@H](C(=O)N[C@@H](Cc1ccc(N=C(N)N)cc1)C(=O)NCc1ccc(C(=N)N)c(F)c1)C(C)C,Ki,Furin [7],0.0037 µM
